Assay results reported in US20240009269A1 (priority 2020, published 2024).
Read-outs that look alike come from different tables or passages of the source.

Legend:
[1] = tested on: dhBMECs; assay: Cytotoxicity assay (EthD1/Hoechst live-cell imaging), dhBMECs; assay type: cell-based, human; conditions: for exposure time maintaining high cell viability: phase diagrams of dhBMECs and HCNs, 98% viability
Procedure: DhBMECs were seeded on polystyrene 96-well plate, coated with 25 μg mL^−1 fibronectin and 50 μg mL^−1 collagen IV, at 2×10^5 cells cm^−2 in BBB induction medium. On day 1, the cells were washed twice with BBB maintenance medium with gentle pipetting up-and-down to remove non-adherent cells and incubated in the medium overnight. HCN2 cells were seeded in the tissue culture-treated 96-well plate at 3×10^3 cell cm^−2 in HCN2 cell culture medium and cultured for two days at 37° C., 5% CO2, with the medium change on day 1 after the seeding. The cytotoxicity assay was performed on day 2 after seeding. Briefly, in the cytotoxicity assay, the cells were incubated with two dyes: a membrane-impermeable Ethidium homodimer-1 (EthD1, L3224, Thermo Fisher Scientific) to assess cell viability, and Hoechst 33342 nuclear stain (Cat. No. 62249, Thermo Fisher Scientific) and imaged on an epifluorescence microscope. In more detail, the cells were washed with BBB maintenance medium followed by incubation with 200 μL of 2 μg mL^−1 Hoechst 33342 and 10 μM EthD1 solution for 15-30 minutes at 37° C., 5% CO2. After the incubation, 100 μL of the solutions were replaced with Hoechst 33342 and EthD1 solutions containing melittin using a multichannel pipettor, resulting in final 0.75 μM, 5 μM, and 10 μM melittin concentrations. After the addition of treatment solutions, large 6×6 epifluorescence images were collected every ˜3.5 minutes per condition using a 20×objective and a Nikon Eclipse TiE microscope, equipped with 37° C. chamber, for 60-90 minutes. Out-of-focus portions of images were manually blacked out using ImageJ. Afterwards, the images were analyzed using a custom pipeline in image analysis software CellProfiler 3.1.8 to count Hoechst-positive objects (all cells) and EhtD1-positive objects (dead cells). The fraction of viable cells (F) was calculated using equation 2 below:
where N(EthD1)i is the number of EthD1-positive objects at time i, N(EthD1)o is the number of EthD1-positive objects at time t=2 minutes (initial time of imaging), N(Hoechst)max is the maximum number of Hoechst-positive objects counted in an image over the imaging time-course. For dhBMECs, the experiments were repeated a total of five times with two independent iPSC differentiations. In the experiment, all media removal was done by gentle pipetting and not aspiration by vacuum. For HCN2 cells, the experiments were performed a total of three times on day 2 and day 3 after seeding.

[2] = tested on: mouse brain (blood-brain barrier)
Source text: Briefly, male C57BL/6J mice (n=43, 6-8 weeks old, 20-25 g, Jackson Laboratory) were anesthetized with 2% isoflurane. The common carotid artery (CCA) bifurcation was exposed and the occipital artery branching off from the external carotid artery (ECA) was coagulated. The ECA and the pterygopalatine artery (PPA) were temporarily ligated with 4-0 silk sutures. A temporary ligature using a 4-0 suture was placed on the carotid bifurcation and the proximal CCA was permanently ligated. A microcatheter (PE-8-100, SAI Infusion Technologies) was flushed with 2% heparin (1,000 U mL^−1, heparin sodium, Upjohn), inserted into the CCA via a small arteriotomy, and advanced into the internal carotid artery (ICA).
For each animal, 150 μL of solution was infused at a rate of 150 μL minute^−1. […] The brains were harvested immediately after Evans Blue injection, sectioned in brain slicer matrix (Zivic Instruments) to produce 1 mm slabs.
Animal anesthesia was maintained at 1.5-2% during the MRI scan. Mice were placed on a water-heated animal bed equipped with temperature and respiratory control. Respiration was monitored and maintained at 30-60 minutes^−1. All MRI experiments were performed on a Bruker 11.7T MRI scanner. Baseline T2 (TR/TE=2,500/30 ms), susceptibility-weighted imaging (SWI) (TR/TE=378/8 ms), T1 (TR/TE 350/6.7 ms)-weighted, dynamic gradient echo echo-planar imaging (GE-EPI, TR/TE 1250/9.7 ms, field of view (FOV)=14×14 mm, matrix=128×128, acquisition time=60 s and 24 repetitions) and dynamic T1 imaging (TR/TE 2000/3. 5ms, field of view=14×14 mm, acquisition time=8 seconds and 20 repetitions) images of the brain were acquired. The microcatheter was connected to a syringe mounted on an MRI compatible programmable syringe pump (PHD 2000, Harvard Apparatus Inc.). Gadolinium (Gd; Prohance) dissolved in saline at 1:50 was infused intra-arterially at the rate of 150 μL minute^−1 under dynamic GE-EPI MRI for visualization of perfusion territory. […] To quantify BBB status, T1 intensities in cortex, hippocampus and thalamus/hypothalamus were compared between ipsilateral and contralateral hemispheres. T1 hyperintensity was corrected for possible asymmetry using pre-contrast T1 images and normalized as the ratio of ipsilateral to contralateral intensity. Additionally, the area of BBBO (mm^2) was calculated by conversion of T1 images to binary using the Auto Threshold function (plugin v1.17; Maximum Entropy method) [Kapur, J. N., P. K. Sahoo, and A. K. C. Wong, Computer Vision, Graphics, and Image Processing, 1985, 29(3): p. 273-285] in ImageJ. T2-weighted and SWI images were acquired at the same timepoints for detection of brain damage and microhemorrhage. Subsequently, animals were sacrificed for further histological assessment.
To determine the area and region of perfusion territory, we first calculated the contrast enhancement maps at the time where contrast enhancement was at its maximum. As Gd causes negative contrast under T2 imaging, we calculated the contrast enhancement as (SIpre-SIpost)/SIpre, where SI is the signal intensity of an MR image. Histogram was plotted for all pixels in the brain region in a contrast enhancement map and further fitted into two Gaussian distributions, assuming there were two dominant populations for non-contrast enhanced and contrast-enhanced pixels, respectively. The cutoff value to separate the two populations was then determined. The fraction of contrast enhanced areas was calculated by the ratio of the number of pixels, whose values are larger than the cutoff value, to the total number of pixels in the brain. A similar method was used to determine the BBBO territory.

[3] = tested on: human cortical neurons (HCNs, HCN-2 cells)
[4] = tested on: mice; conditions: intraperitoneal administration; cited from earlier work
[5] = 5 μM melittin, continuous exposure

CC[C@H](C)[C@H](NC(=O)CN)C(=O)NCC(=O)N[C@@H](C)C(=O)N[C@H](C(=O)N[C@@H](CC(C)C)C(=O)N[C@@H](CCCCN)C(=O)N[C@H](C(=O)N[C@@H](CC(C)C)C(=O)N[C@H](C(=O)N[C@H](C(=O)NCC(=O)N[C@@H](CC(C)C)C(=O)N1CCC[C@H]1C(=O)N[C@@H](C)C(=O)N[C@@H](CC(C)C)C(=O)N[C@H](C(=O)N[C@@H](CO)C(=O)N[C@@H](Cc1c[nH]c2ccccc12)C(=O)N[C@H](C(=O)N[C@@H](CCCCN)C(=O)N[C@@H](CCCNC(=N)N)C(=O)N[C@@H](CCCCN)C(=O)N[C@@H](CCCNC(=N)N)C(=O)N[C@@H](CCC(N)=O)C(=O)N[C@@H](CCC(N)=O)C(N)=O)[C@@H](C)CC)[C@@H](C)CC)[C@@H](C)O)[C@@H](C)O)C(C)C)C(C)C [melittin]
exposure time maintaining high cell viability ([1]; 0.75 μM melittin): ≥ 20 min
time for which viability is largely unaffected ([1]; 5 μM melittin): about 20 minutes
time at which the viability reached 50% (τ1/2) [1, 5]: ~40 min
exposure time maintaining high cell viability ([1]; 10 μM melittin): ≤ 10 min
decrease of viability ([1]; dose of 100 μM·minute): < 2%
Evans Blue leakage ([2]; 1 μM·minute): No leakage of Evans Blue
dose relative to solubility limit (fold below) ([2]; 3 μM·min melittin): ~120 fold
Evans Blue leakage ([2]; 3 μM·minute, ipsilateral hemisphere): reproducible leakage of Evans Blue
Evans Blue extravasation ([2]; 3 μM·minute, 24 hours): no Evans Blue extravasation
leakage of Gd (T1 MRI) ([2]; 3 μM·minute, 24 hours): marginal leakage
T1 hyperintensity ([2]; 3 μM·minute, cortex): much lower
BBB status (Gd-enhanced MRI and Evans Blue) ([2]; 3 μM·minute, day 7): full recovery of the BBB
T1 intensity, ipsilateral vs contralateral ([2]; 3 μM·minute, hippocampus and thalamus/hypothalamus, following dosing): significant increase
brain territory opened (area of BBBO, T1 thresholding) ([2]; 3 μM·minute, within the hippocampus, immediately after dosing): 5.70±1.73 mm^2
Evans Blue leakage ([2]; 5 μM·minute): Widespread leakage of Evans Blue
reduction of BBBO area ([2]; at 24 hours and 7 days): ~20 fold
minimum effective dose for BBBO ([2]; intra-arterial (internal carotid artery), 1 minute): 3 µM·min
difference in dose required for BBBO, human microvessels (20 μM·minute) vs mouse brain (3 μM·minute) ([2]; mouse, in vivo): approximately 7 fold
time high viability (≥98%) is maintained ([3]; 0.75 μM melittin): ~23 min
time for which viability is largely unaffected ([3]; 5 μM melittin): about 20 minutes
time high viability (≥98%) is maintained ([3]; 5 μM melittin): ~12 min
time at which the viability reached 50% (τ1/2) [3, 5]: ~30 min
time high viability (≥98%) is maintained ([3]; 10 μM melittin): ~12 min
decrease of viability ([3]; dose of 100 μM·minute): < 2%
LD50 [4]: 3.2 mg/kg
